From US20160158415A1, “METHOD FOR DETOXIFYING A BIOLOGICAL TISSUE” (Sorin Group Italia S.r.l., priority 2010, published 2016)
Entries after “also recorded” stand apart in the source; their conditions may differ.

Test: Fuchsine staining of free aldehyde groups on fixed, detoxified tissue (observed colour)
Parameters: species or system bovine
Settings: FIG. 1 samples; detoxified at room temperature about 24 hours; homocysteic acid 1.00% w/v or taurine 0.70% w/v in phosphate buffer pH 7; weaker staining = fewer free aldehyde groups
Protocol: The efficacy of the method described herein, and therefore the occurrence of the reaction between the amino groups of the detoxifying molecule and the aldehyde groups present on the fixed tissue, is evaluated by staining of the aldehyde groups remaining free. The greater the staining intensity, the more numerous are the free aldehyde groups and, on the contrary, the weaker (or absent) the staining, the less numerous (or absent) are the free aldehyde groups present on the detoxified tissue.
The detoxification step was conducted at room temperature (20° C.), 40° C. and 50° C., for a period of time of 24 hours, using about 200 ml of solution for each tissue.
a second control sample (FIG. 1B) fixed with glutaraldehyde and detoxified with a solution containing homocysteic acid at a concentration (w/v) of 1.00% in phosphate buffer pH 7;
The tissue samples were immersed in the detoxifying solutions for about 24 hours at room temperature with gentle agitation.
The samples were immersed in the detoxifying solution for about 24 hours with gentle agitation both at room temperature and at 40° C.; the fourth sample detoxified at 50° C. was maintained immersed for 7-8 hours with gentle agitation.
Tissue staining to detect free aldehyde groups uses an acidic solution of rosaniline hydrochloride (fuchsine). […]

Compound: N[C@@H](CCS(=O)(=O)O)C(=O)O [homocysteic acid]
- Staining observed: less than that of the control sample; also recorded: Violet
